The nature of assay [1]: Specific activity of 14CO2 formation from 1-[14C]-2OG corrected for uncoupled turnover in presence of anthocyanin synthase(ANS). The format is functional.
Assay [2] can be described thus: Specific activity of 14CO2 formation from 1-[14C]-2OG in presence of anthocyanin synthase(ANS). The format is functional.

As for `Oc1cc(O)c2c(c1)O[C@H](c1ccc(O)c(O)c1)[C@@H](O)[C@H]2O`, the Specific activity in assay [1] stood at 138 ukat kg-1; in assay [2] it was 181.5 ukat kg-1.
Take `Oc1cc(O)c2c(c1)O[C@H](c1ccc(O)c(O)c1)[C@@H](O)[C@@H]2O`: the Specific activity in assay [1] is listed as 342 ukat kg-1; in assay [2] it was 385 ukat kg-1.
For `Oc1cc(O)c2c(c1)O[C@@H](c1ccc(O)c(O)c1)[C@H](O)[C@@H]2O.Oc1cc(O)c2c(c1)O[C@H](c1ccc(O)c(O)c1)[C@@H](O)[C@H]2O` (racemic), the Specific activity in assay [1] is 41 ukat kg-1; in assay [2], 84.1 ukat kg-1.
In the same order, the values of `Oc1cc(O)c2c(c1)O[C@@H](c1ccc(O)c(O)c1)[C@H](O)[C@H]2O.Oc1cc(O)c2c(c1)O[C@H](c1ccc(O)c(O)c1)[C@@H](O)[C@@H]2O` (racemic) are 145 ukat kg-1 and 188.4 ukat kg-1.
